From paper PMC11203266, “Continuous evolution of compact protein degradation tags regulated by selective molecular glues” (Science (New York, N.Y.), 2024)

Assays:
MM.1S cells = test: Whole-transcriptome RNA-Seq; assay type: cell-based, human; conditions: for differentially expressed genes: 1 μM, 48 hrs, fold-change > 2, FDR-corrected P < 0.01
Protocol: The effect of small molecule treatment on transcriptome-wide RNA expression was evaluated using bulk RNA sequencing of 5 biological replicates per sample. […] 48 hours following treatment, cells were washed with PBS and lysed in RLT buffer (Qiagen) with β-mercaptoethanol. Total RNA from each sample was purified from 2–4×10^5 cells using the RNeasy Mini Kit (Qiagen) with on-column DnaseI digestion and eluted in nuclease-free water. Polyadenylated RNA was sequenced using Smart-seq2 as previously described ([82]) with two changes: 20 ng of total RNA and Maxima Rnase H-minus reverse transcriptase (Thermo Fisher) were used for the initial reverse transcription step. The resulting cDNA libraries were sequenced on an Illumina NextSeq 550 High Output kit with the following run parameters: 37 cycles for read1, 37 cycles for read2, 8 cycles for index1, and 8 cycles for index2.
Sequencing data were demultiplexed with bcl2fastq and roughly 40 million paired-end reads were obtained per sample. Transcript-level quantification was performed using kallisto ([83]) with the homo sapiens GRCh38 reference transcriptome and with bootstrapping. Differential expression analysis at the gene level was conducted using Deseq2 with batch correction of biological replicates ([84]). To pre-filter low count genes, only genes with at least 10 counts in at least 5 samples were analyzed. Compared between conditions, genes with a transcript abundance fold-change > 2 and with a false discovery rate-corrected P-value < 0.01 were called as differentially expressed.

CRBN = CRBN (Homo sapiens, UniProt Q96SW2); test: In-cell CRBN engagement NanoBRET; conditions: for EC50: EC50 CRBN engagement
Sequence of CRBN (Q96SW2 whole entry): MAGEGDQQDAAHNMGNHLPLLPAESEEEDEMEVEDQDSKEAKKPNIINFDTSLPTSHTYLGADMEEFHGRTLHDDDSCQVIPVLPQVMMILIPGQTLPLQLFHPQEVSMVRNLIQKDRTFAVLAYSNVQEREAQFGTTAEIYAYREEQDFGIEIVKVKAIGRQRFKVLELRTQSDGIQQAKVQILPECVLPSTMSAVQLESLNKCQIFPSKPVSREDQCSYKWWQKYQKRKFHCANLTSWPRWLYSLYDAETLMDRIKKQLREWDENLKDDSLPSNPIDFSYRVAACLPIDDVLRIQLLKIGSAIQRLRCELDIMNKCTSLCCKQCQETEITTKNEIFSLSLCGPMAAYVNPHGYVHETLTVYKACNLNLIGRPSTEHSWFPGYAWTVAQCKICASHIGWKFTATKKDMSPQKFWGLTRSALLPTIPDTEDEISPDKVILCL
Sequence of CRBN (Q16531 whole entry partner): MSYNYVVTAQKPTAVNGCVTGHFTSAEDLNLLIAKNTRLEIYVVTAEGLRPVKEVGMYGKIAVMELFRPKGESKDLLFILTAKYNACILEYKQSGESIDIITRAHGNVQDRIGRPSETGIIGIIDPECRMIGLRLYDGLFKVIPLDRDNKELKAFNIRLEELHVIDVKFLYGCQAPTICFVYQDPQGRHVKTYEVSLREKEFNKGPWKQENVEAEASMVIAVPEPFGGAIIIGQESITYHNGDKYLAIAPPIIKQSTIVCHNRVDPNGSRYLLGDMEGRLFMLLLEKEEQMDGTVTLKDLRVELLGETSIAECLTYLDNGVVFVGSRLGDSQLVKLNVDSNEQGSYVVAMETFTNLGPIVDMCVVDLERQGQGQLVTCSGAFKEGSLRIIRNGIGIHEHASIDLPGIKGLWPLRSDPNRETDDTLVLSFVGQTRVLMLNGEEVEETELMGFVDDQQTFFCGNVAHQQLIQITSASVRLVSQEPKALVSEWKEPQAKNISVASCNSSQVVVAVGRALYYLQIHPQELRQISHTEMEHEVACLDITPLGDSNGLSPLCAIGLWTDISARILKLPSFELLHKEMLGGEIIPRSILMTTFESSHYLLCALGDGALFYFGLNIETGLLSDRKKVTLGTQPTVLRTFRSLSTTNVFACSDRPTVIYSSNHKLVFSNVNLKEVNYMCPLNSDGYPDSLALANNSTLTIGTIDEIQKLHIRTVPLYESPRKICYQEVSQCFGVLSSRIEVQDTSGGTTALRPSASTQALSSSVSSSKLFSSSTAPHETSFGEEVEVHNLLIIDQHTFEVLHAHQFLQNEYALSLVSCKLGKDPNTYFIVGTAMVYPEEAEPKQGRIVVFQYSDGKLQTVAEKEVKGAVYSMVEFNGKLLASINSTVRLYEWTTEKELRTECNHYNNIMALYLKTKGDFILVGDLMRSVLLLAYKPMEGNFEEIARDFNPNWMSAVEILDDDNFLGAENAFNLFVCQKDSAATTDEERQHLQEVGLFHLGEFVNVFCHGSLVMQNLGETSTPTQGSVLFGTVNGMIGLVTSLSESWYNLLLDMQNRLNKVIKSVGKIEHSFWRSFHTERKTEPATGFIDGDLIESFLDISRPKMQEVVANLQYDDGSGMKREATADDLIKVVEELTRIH
Protocol: U2OS or HEK293T cells were transfected with a combination of NanoLuc-CRBN fusion vector (1 μg/ 100,000 cells) and DDB1 expression vector (4 μg/ 100,000 cells) encoded plasmid (Promega N2910) using Lipofectamine 3000 reagent (Thermo Fischer Scientific, L3000015). […] The transfected cells were washed with PBS, trypsinized, and plated in a 384-well white microplate (Corning, 3765) at 3000 cells in 34 μL Opti-MEM I reduced serum medium per well. […] The plates were incubated for 1 hour at 37 °C, 5% CO2. After incubation plates were brought to room temperature and incubated with 3X complete substrate plus inhibitor solution (20 μL) for 3 minutes at room temperature before measuring BRET signal on an EnVision multilabel plate reader with EnVision Manager 1.13 (PerkinElmer). At each liquid handling step, the plates were shaken on a Thermo Fisher combi instrument followed by centrifugation at 100 xg for 1 minute.
Lipofectamine 2000 was used in place of lipofectamine 3000 for all transfections, 1 μg of pSD192A was included for generating the SD40-PRKRA overexpression sample, and the assay was performed using 2,500 cells per well.
NanoBRET values for the in-cell CRBN engagement assay were calculated as follows:
2) mean corrected NanoBRET ratio mBU = Mean mBU experimental − Mean mBU no-ligand control.
EC50 values were calculated in GraphPad Prism (v9.5.1), using an inhibitor vs. response variable slope (four parameter) model.

TUB = biological target: T1, TUB (Homo sapiens, UniProt P50607); test: Western blot of TUB in HEK293T cells; assay type: cell-based; conditions: 100-10,000 nM
T1 construct: endogenous in cells; host or cells: HEK293T
T1 sequence (P50607 whole entry): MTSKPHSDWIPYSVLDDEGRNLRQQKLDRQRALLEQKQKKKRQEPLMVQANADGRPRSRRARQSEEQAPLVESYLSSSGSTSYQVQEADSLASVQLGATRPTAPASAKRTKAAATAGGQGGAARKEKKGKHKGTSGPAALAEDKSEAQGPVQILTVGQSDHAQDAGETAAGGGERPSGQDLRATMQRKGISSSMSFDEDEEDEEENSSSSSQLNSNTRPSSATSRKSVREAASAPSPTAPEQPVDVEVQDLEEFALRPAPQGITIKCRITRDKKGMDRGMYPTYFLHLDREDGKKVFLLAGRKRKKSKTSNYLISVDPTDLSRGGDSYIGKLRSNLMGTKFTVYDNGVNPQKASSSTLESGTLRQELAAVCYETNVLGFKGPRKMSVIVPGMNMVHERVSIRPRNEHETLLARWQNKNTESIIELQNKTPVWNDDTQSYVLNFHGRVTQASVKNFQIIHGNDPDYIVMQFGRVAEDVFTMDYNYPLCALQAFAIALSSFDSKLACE
Protocol: HEK293T or K562 cells were plated at a density of 1.6 x 10^5 cells/well in a 24-well plate coated with poly-D-lysine (Corning) in 1 mL media (DMEM + 10% FBS for HEK293T cells and RPMI + 10% FBS for K562 cells). After 16–18 hrs, cells were treated with either DMSO or the indicated concentration of small molecules to a 0.5% final concentration of DMSO. Plates were incubated at 37 °C, 5% CO2 for 24 hours for all cell lines except endogenously tagged PLK1–SD40 HEK293T cells, which were incubated for 2 hours. Cells were washed with PBS and then lysed for 30 minutes at 4 °C in radioimmunoprecipitation assay (RIPA; 25 mM Tris-HCl, 150 mM NaCl, 1% NP-40, 1% sodium deoxycholate, 0.1% SDS, pH ~ 7.6) buffer containing 1 mM phenylmethylsulfonyl fluoride (PMSF; Sigma Aldrich) and 1 x EDTA-free protease inhibitor cocktail (Roche). Lysates were centrifuged for 20 min @18,000 x g to isolate the soluble fractions. Protein concentration in clarified lysates was quantified using Pierce BCA Protein Assay Kit (Thermo Scientific) according to the manufacturer’s protocol. Clarified lysates were mixed with NuPAGE LDS Sample Buffer (Thermo NP0007) containing 10 mM DTT and boiled for 10 minutes. Gel electrophoresis was performed on boiled samples using polyacrylamide gels (Invitrogen NP0329BOX) with equal amounts of total protein in each lane. […]
values were calculated using a Welch's t-test. […]

SD40–BRD4 = test: Immunoblot, endogenous SD40-tagged BRD4 in K562 cells; assay type: cell-based, human; conditions: 24 hrs
From the text: Next, we evaluated the installation of SD40 at endogenous genomic target genes in mammalian cells using twin prime editing (twin PE) ([54], [75]). We optimized prime editing parameters, including spacer position and prime editor construct ([30]), to insert SD40 at the C-terminus of PLK1 with 26% editing efficiency and 8.8% indel byproducts in HEK293T cells (Fig. 3E, fig. S13), enabling rapid isolation of a homozygous PLK1-SD40 cell line. PLK1 is an essential cell-state regulator ([76]), and complete knockdown for 24 hours is cytotoxic. […] We also used twin prime editing to install SD40 at the N-terminus of BRD4 yielding 7.7% knock-in of SD40 in K562 cells (Fig. 3E, S13) with 4.3% indel byproducts. […] For comparison, we also attempted scarless insertion of SD40 and FKBP12^F36V from the dTag system (324 base pairs) ([17]) at the N-terminus of BRD4 using Cas9 nuclease-directed HDR using two different sgRNAs and a double-strand donor DNA template. […]
HEK293T or K562 cells were plated at a density of 1.6 x 10^5 cells/well in a 24-well plate coated with poly-D-lysine (Corning) in 1 mL media (DMEM + 10% FBS for HEK293T cells and RPMI + 10% FBS for K562 cells). […] Protein concentration in clarified lysates was quantified using Pierce BCA Protein Assay Kit (Thermo Scientific) according to the manufacturer’s protocol. […]

Compound | differentially expressed genes (MM.1S cells) | EC50 (CRBN; HEK293T cells) [nM] | EC50 (CRBN; HEK293T cells, No SD40 (fig. S16 protocol)) [nM] | EC50 (CRBN; HEK293T cells, SD40–PRKRA low expression (single-copy lentiviral integration)) [nM] | EC50 (CRBN; HEK293T cells, SD40–PRKRA overexpression (plasmid transfection)) [nM] | EC50 (CRBN; U2OS cells) [nM] | lower apparent potency than pomalidomide (CRBN; HEK293T and U2OS cells) [fold] | increase in apparent affinity for CRBN (CRBN; HEK293T cells overexpressing SD40–PRKRA) [fold] | increase in apparent affinity for CRBN (CRBN; HEK293T cells stably expressing SD40–PRKRA) [fold] | TUB degradation (in words) (TUB) | decrease in the frequency of gene expression perturbation (MM.1S cells; PT-179 vs pomalidomide) [fold] | SD40–BRD4 degradation (in words) (SD40–BRD4)
Nc1cccc2c1C(=O)N(C1CCC(=O)NC1=O)C2=O (stereo not shown) [pomalidomide, reference compound] | 1,426 genes |  |  |  |  |  |  |  |  |  |  | 
O=C1CCC(N2C(=O)c3ccc(N4CCOCC4)cc3C2=O)C(=O)N1 (stereo not shown) [PT-179] | three | 2880 | 641 | 350 | 169 | 979 | 7 | 3.8 | 1.8 | does not degrade TUB | 475 | robust degradation
